These results are taken from patent US20260242438A1 (INSTITUTE OF MATERIA MEDICA, CHINESE ACADEMY OF MEDICAL …, priority 2022, published 2026).

SMILES strings stand for the structures. Where a SMILES comes first, the peptide text is derived from it. Bridges are numbered along the chain shown (N, C = ends).

This assay addresses chymotrypsin (Bos taurus, UniProt P00766). Kind of assay: Determination of enzyme inhibitory activity against chymotrypsin (substrate AAPFpNA, OD 405 nm). Type of assay: biochemical. Particulars: for IC50: chymotrypsin 30 nM, AAPFpNA 0.5 mM, pH 7.8, 37° C.; for remaining activity at 0.0001 µM: peptide 0.0001 μM; for remaining activity at 0.001 µM: peptide 0.001 μM; for remaining activity at 0.01 µM: peptide 0.01 μM; for remaining activity at 0.1 µM: peptide 0.1 μM; for remaining activity at 0.25 µM: peptide 0.25 μM; for remaining activity at 0.5 µM: peptide 0.5 μM; for remaining activity at 1 µM: peptide 1 μM; for remaining activity at 10 µM: peptide 10 μM; for remaining activity at 100 µM: peptide 100 μM; for remaining activity at 0.05 µM: peptide 0.05 μM. As to the method:
The substrates N-succinyl-Ala-Ala-Pro-Phe-p-nitroaniline (AAPFpNA) is used in competitive binding reaction to determine the inhibitory activities against α -chymotrypsin. Experiments for a-chymotrypsin was measured in 20 mM CaCl2, 50 mM Tris-HCl buffer (pH 7.8). The concentration of the peptide was measured using optical density (OD) at 280 nm. The Michaelis constant (Km) of the enzyme hydrolysis substrate is calculated from the initial rate of substrate hydrolysis at 405 nm. The absorbance value of the substrate was measured at 405 nm after complete hydrolysis. All data were processed using nonlinear regression.
(1) Added a total 190 μL of reaction buffer (20 mM CaCl2, 50 mM Tris-HCl (pH 7.8)), different concentrations of anti-chymorypsin peptides (CHs) into the pre-cold 96 well plate, followed by preheating at 37° C. for 5 min and centrifugated at 500 rpm for 1 min and allowed to stand for 4 minutes. Then added 8 μL of 750 nM chymotrypsin and incubated at 37° C. for 10 min, and centrifugated at 500 rpm for 1 min and allowed to stand for 9 minutes. Finally, added 2 μL of 50 mM AAPFpNA, and mixed by centrifugation at 500 rpm for 1 min. The plate was incubated at 37° C. for 90 min, and the absorbance value at 405 nm was measured. Three repetitions were made, and only reaction buffer and substrate were added in the blank control as the minimum absorption value (Min OD 405 nm); Only reaction buffer, enzyme and substrate were added in the negative control as the maximum absorption value (Max OD 405 nm).
(2) In the 200 μL of reaction system, the final concentrations of chymotrypsin and AAPFpNA were 30 nM and 0.5 mM, respectively.
Plotted the residual activity of enzyme with […] to obtain the half inhibitory concentration (IC50) of anti-chymorypsin peptides (CHs). Then, substituted it into the formula […]/(1+S/Km) (S, IC50, and Km were substrate concentration, half inhibitory concentration, and Michaelis constant, respectively) to obtain the inhibition constant Ki of anti-chymorypsin peptides (CHs).

Where [1] appears, read: read-out: Residual activity of chymotrypsin.

The Ki is the equilibrium dissociation constant of an inhibitor or competing ligand from its target. In general, IC50 refers to the concentration that gives 50% inhibition. High values mean lower potency, low ones higher potency. With `CC[C@H](C)[C@@H]1NC(=O)[C@@H]2CCCN2C(=O)[C@@H]2CCCN2C(=O)[C@H]([C@@H](C)CC)NC(=O)[C@H](CO)NC(=O)[C@H](Cc2ccccc2)NC(=O)[C@H]([C@@H](C)O)NC(=O)[C@@H](NC(=O)[C@@H](NC(=O)CN)[C@@H](C)O)CSSC[C@@H](C(=O)N[C@@H](CC(N)=O)C(=O)N2CCC[C@H]2C(=O)N[C@@H](CC(N)=O)C(=O)O)NC1=O` [CH59] (H-GTCTFSIPPICNPN-OH; disulfide 3-11; C-terminus assumed), the Ki turned out to be 80 nM and the IC50 is 180 nM.
In turn, `CC[C@H](C)[C@@H]1NC(=O)[C@@H]2CCCN2C(=O)[C@@H]2CCCN2C(=O)[C@H]([C@@H](C)CC)NC(=O)[C@H](CO)NC(=O)[C@H](Cc2ccc(O)cc2)NC(=O)[C@H]([C@@H](C)O)NC(=O)[C@@H](NC(=O)[C@@H](NC(=O)CN)[C@@H](C)O)CSSC[C@@H](C(=O)N[C@@H](CC(N)=O)C(=O)N2CCC[C@H]2C(=O)N[C@@H](CC(N)=O)C(=O)O)NC1=O` [CH60] (H-GTCTYSIPPICNPN-OH; disulfide 3-11; C-terminus assumed) registered a Ki of 40 nM and an IC50 of 90 nM. Moreover, under setting [1], the remaining activity at 0.0001 µM was found to be 104.2 ± 0.8%, the remaining activity at 0.001 µM stood at 104.5 ± 0.9%, the remaining activity at 0.01 µM came out at 102 ± 7.6% and the remaining activity at 0.1 µM came out at 47.6 ± 7.6%. Under setting [1], the remaining activity at 0.25 µM was 29.5 ± 4.6%, the remaining activity at 0.5 µM came out at 7.4 ± 1%, the remaining activity at 1 µM is 3 ± 0.2% and the remaining activity at 10 µM was 0.7 ± 0.1%. The remaining activity at 100 µM under setting [1] came out at 0%.
Consider `CC[C@H](C)[C@@H]1NC(=O)[C@@H]2CCCN2C(=O)[C@@H]2CCCN2C(=O)[C@H]([C@@H](C)CC)NC(=O)[C@H](CO)NC(=O)[C@H](Cc2ccc(O)cc2)NC(=O)[C@H]([C@@H](C)O)NC(=O)[C@@H](NC(=O)[C@@H](NC(=O)CN)[C@@H](C)O)CSSC[C@@H](C(=O)N[C@@H](CC(N)=O)C(=O)N2CCC[C@H]2C(=O)O)NC1=O` [CH61] (H-GTCTYSIPPICNP-OH; disulfide 3-11; C-terminus assumed), for which the Ki stood at 50 nM and the half-maximal inhibitory concentration (IC50) was 120 nM. Further, under setting [1], the remaining activity at 0.0001 µM came to 100.9 ± 0.6%, the remaining activity at 0.001 µM stood at 100.1 ± 0.7%, the remaining activity at 0.01 µM was found to be 97.3 ± 5.4% and the remaining activity at 0.05 µM was 86.1 ± 3.3%. Under setting [1], the remaining activity at 0.1 µM was 44.2 ± 4.5%, the remaining activity at 0.5 µM came out at 24.3 ± 2.5%, the remaining activity at 1 µM turned out to be 13.3 ± 1.7% and the remaining activity at 10 µM was found to be 1.7%. Under setting [1], the remaining activity at 100 µM turned out to be 0.2%.
`CC[C@H](C)[C@@H]1NC(=O)[C@@H]2CCCN2C(=O)[C@@H]2CCCN2C(=O)[C@H]([C@@H](C)CC)NC(=O)[C@H](CO)NC(=O)[C@H](Cc2ccc(O)cc2)NC(=O)[C@H]([C@@H](C)O)NC(=O)[C@@H](NC(=O)[C@@H](NC(=O)CN)[C@@H](C)O)CSSC[C@@H](C(=O)N[C@@H](CC(N)=O)C(=O)O)NC1=O` [CH62] (H-GTCTYSIPPICN-OH; disulfide 3-11; C-terminus assumed) returned a Ki of 60 nM and an IC50 of 150 nM. Besides, under setting [1], the remaining activity at 0.0001 µM stood at 100.9 ± 0.8%, the remaining activity at 0.01 µM turned out to be 102 ± 2.2%, the remaining activity at 0.05 µM was 83.4 ± 8.3% and the remaining activity at 0.1 µM turned out to be 56.4 ± 2%. Also, under setting [1], the remaining activity at 0.25 µM came out at 40.9 ± 6.8%, the remaining activity at 0.5 µM turned out to be 25.1 ± 1.5%, the remaining activity at 1 µM was found to be 14.2 ± 5.9% and the remaining activity at 10 µM was found to be 0.8 ± 0.1%. For the same molecule, under setting [1], the remaining activity at 100 µM stood at 0.1%.
Molecule `CC[C@H](C)[C@@H]1NC(=O)[C@@H]2CCCN2C(=O)[C@@H]2CCCN2C(=O)[C@H]([C@@H](C)CC)NC(=O)[C@H](CO)NC(=O)[C@H](Cc2ccc(O)cc2)NC(=O)[C@H]([C@@H](C)O)NC(=O)[C@@H](NC(=O)[C@@H](N)[C@@H](C)O)CSSC[C@@H](C(=O)N[C@@H](CC(N)=O)C(=O)O)NC1=O` [CH63] (H-TCTYSIPPICN-OH; disulfide 2-10; C-terminus assumed) came in with a Ki of 1320 nM and a 50% inhibitory concentration (IC50) of 3050 nM.
The like results for `CC[C@H](C)[C@@H]1NC(=O)[C@@H]2CCCN2C(=O)[C@@H]2CCCN2C(=O)[C@H]([C@@H](C)CC)NC(=O)[C@H](CO)NC(=O)[C@H](Cc2ccc(O)cc2)NC(=O)[C@H]([C@@H](C)O)NC(=O)[C@@H](NC(=O)[C@@H](N)CCCCN)CSSC[C@@H](C(=O)N[C@@H](Cc2ccccc2)C(=O)O)NC1=O` [CH64] (H-KCTYSIPPICF-OH; disulfide 2-10; C-terminus assumed) were, in that order, 400 nM and 930 nM.
As to `CC[C@H](C)[C@@H]1NC(=O)[C@@H]2CCCN2C(=O)[C@@H]2CCCN2C(=O)[C@H]([C@@H](C)CC)NC(=O)[C@H](CO)NC(=O)[C@H](Cc2ccc(O)cc2)NC(=O)[C@H]([C@@H](C)O)NC(=O)[C@H](C)NC(=O)[C@H](CCCNC(=N)N)NC(=O)CNC(=O)[C@@H](N)CSSC[C@@H](C(=O)N[C@@H](Cc2ccccc2)C(=O)N2CCC[C@H]2C(=O)N[C@@H](CC(=O)O)C(=O)O)NC1=O` [CH65] (H-CGRATYSIPPICFPD-OH; disulfide 1-12; C-terminus assumed), the Ki came to 210 nM and 480 nM corresponded to half-maximal inhibition (IC50). Moreover, under setting [1], the remaining activity at 0.001 µM was determined as 99.8 ± 2%, the remaining activity at 0.1 µM amounted to 97.8 ± 4.4%, the remaining activity at 0.25 µM amounted to 89.5 ± 2.9% and the remaining activity at 0.5 µM stood at 48.2 ± 3.6%. In addition, under setting [1], the remaining activity at 1 µM was determined as 8.9 ± 1.4%, the remaining activity at 10 µM was found to be 4.1 ± 2.3% and the remaining activity at 100 µM turned out to be 0.1 ± 0.1%. Further, the remaining activity at 0.75 µM (peptide 0.75 μM, read-out: Residual activity of chymotrypsin) turned out to be 11.7 ± 1.4%. The remaining activity at 1000 µM (peptide 1000 μM, read-out: Residual activity of chymotrypsin) came to 0.2%.
Take `CC[C@H](C)[C@@H]1NC(=O)[C@@H]2CCCN2C(=O)[C@@H]2CCCN2C(=O)[C@H]([C@@H](C)CC)NC(=O)[C@H](CO)NC(=O)[C@H](Cc2ccc(O)cc2)NC(=O)[C@H]([C@@H](C)O)NC(=O)[C@H](C)NC(=O)[C@H](CCCNC(=N)N)NC(=O)CNC(=O)[C@@H](N)CSSC[C@@H](C(=O)N[C@@H](Cc2ccccc2)C(=O)N2CCC[C@H]2C(=O)O)NC1=O` [CH66] (H-CGRATYSIPPICFP-OH; disulfide 1-12; C-terminus assumed): the Ki was determined as 280 nM and the IC50 amounted to 650 nM.
The like results for `CC[C@H](C)[C@@H]1NC(=O)[C@@H]2CCCN2C(=O)[C@@H]2CCCN2C(=O)[C@H]([C@@H](C)CC)NC(=O)[C@H](CO)NC(=O)[C@H](Cc2ccc(O)cc2)NC(=O)[C@H]([C@@H](C)O)NC(=O)[C@H](C)NC(=O)[C@H](CCCNC(=N)N)NC(=O)CNC(=O)[C@@H](N)CSSC[C@@H](C(=O)N[C@@H](Cc2ccccc2)C(=O)O)NC1=O` [CH67] (H-CGRATYSIPPICF-OH; disulfide 1-12; C-terminus assumed) were, in that order, 860 nM and 2000 nM.
In turn, `CC[C@H](C)[C@@H]1NC(=O)[C@@H]2CCCN2C(=O)[C@@H]2CCCN2C(=O)[C@H]([C@@H](C)CC)NC(=O)[C@H](CO)NC(=O)[C@H](Cc2ccc(O)cc2)NC(=O)[C@H]([C@@H](C)O)NC(=O)[C@H](C)NC(=O)[C@H](CCCNC(=N)N)NC(=O)[C@H](CCCCN)NC(=O)[C@@H](N)CSSC[C@@H](C(=O)N[C@@H](Cc2ccccc2)C(=O)O)NC1=O` [CH69] (H-CKRATYSIPPICF-OH; disulfide 1-12; C-terminus assumed) displayed a Ki of 130 nM and a half-maximal inhibitory concentration (IC50) of 300 nM. Besides, under setting [1], the remaining activity at 0.001 µM was 101.7 ± 0.3%, the remaining activity at 0.01 µM amounted to 101 ± 0.2%, the remaining activity at 0.1 µM is 100 ± 2.5% and the remaining activity at 0.5 µM was 20.1 ± 6.1%. Moreover, under setting [1], the remaining activity at 1 µM was 12.1 ± 1.1%, the remaining activity at 10 µM turned out to be 1.3 ± 0.6% and the remaining activity at 100 µM was determined as 0%. The remaining activity at 0.2 µM (peptide 0.2 μM, read-out: Residual activity of chymotrypsin) was 78 ± 4%. Moreover, the remaining activity at 0.3 µM (peptide 0.3 μM, read-out: Residual activity of chymotrypsin) came to 51.5 ± 5.8%.
